Test results taken from patent US8778966B2, “Quinolinone derivatives as PARP and tank inhibitors” (Janssen Pharmaceutica, NV, priority 2007, dated 2014).
Where two headings read alike, the source gives them in different places.

Assays:
Human PARP-1 enzyme = molecular target: T1, Human PARP-1 enzyme (Homo sapiens, UniProt P09874); assay: In vitro Scintillation Proximity Assay (SPA) for PARP-1 inhibitory activity; format: biochemical; details: read-out: in vitro SPA assay PARP-1 pIC50 (converted)
T1 construct: purchased Trevigen
Procedure, shortened: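 SPA assay: nicked-DNA-activated PARP-1 (0.1–0.2 μg/ml) ADP-ribosylates biotinylated histones (2 μg/ml) using [3H]-NAD+, 20 min at RT in Tris pH 8/DTT/MgCl2, stopped with 2 mM NAD+. Blank-subtracted cpm expressed as % control; IC50 by linear interpolation, reported as pIC50 (10−5 to 3×10−9 M tested).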

HCT116 cells = assay: Antiproliferative activity, Alamar Blue assay, HCT116 cells; format: cell-based, human; design: key to HCT116 antiproliferative activity pIC50: pIC50 = -log IC50 (IC50: conc. reducing growth to 50% of control); details: for IC50: Homo sapiens, HCT-116, HCT116 cells, read-out: HCT116 antiproliferative activity pIC50 (converted)
Procedure, shortened: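 HCT116 cells seeded, adhered 24 h, then exposed to compound for 4 days; Alamar Blue (resazurin) added for 4 h at 37 °C, fluorescence read at 540/590 nm. Viability as % of untreated control, triplicate wells; IC50 by probit analysis, reported as pIC50.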

PC-3 cells = assay: Antiproliferative activity, Alamar Blue assay, PC-3 cells; format: cell-based, human; details: for IC50: Homo sapiens, PC-3, PC3 cells, read-out: PC3 antiproliferative activity pIC50 (converted)
Procedure, shortened: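 PC-3 cells seeded at 4.5×10^3 cells/ml, left to adhere 24 hr, then exposed to compound for 4 days. Resazurin (Alamar Blue) added for a further 24 hrs at 37° C; fluorescence read at 540/590 nm. Viability as % of untreated control, mean of 3 wells; IC50 by probit analysis, reported as pIC50.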

T1 sequence (P09874 whole entry): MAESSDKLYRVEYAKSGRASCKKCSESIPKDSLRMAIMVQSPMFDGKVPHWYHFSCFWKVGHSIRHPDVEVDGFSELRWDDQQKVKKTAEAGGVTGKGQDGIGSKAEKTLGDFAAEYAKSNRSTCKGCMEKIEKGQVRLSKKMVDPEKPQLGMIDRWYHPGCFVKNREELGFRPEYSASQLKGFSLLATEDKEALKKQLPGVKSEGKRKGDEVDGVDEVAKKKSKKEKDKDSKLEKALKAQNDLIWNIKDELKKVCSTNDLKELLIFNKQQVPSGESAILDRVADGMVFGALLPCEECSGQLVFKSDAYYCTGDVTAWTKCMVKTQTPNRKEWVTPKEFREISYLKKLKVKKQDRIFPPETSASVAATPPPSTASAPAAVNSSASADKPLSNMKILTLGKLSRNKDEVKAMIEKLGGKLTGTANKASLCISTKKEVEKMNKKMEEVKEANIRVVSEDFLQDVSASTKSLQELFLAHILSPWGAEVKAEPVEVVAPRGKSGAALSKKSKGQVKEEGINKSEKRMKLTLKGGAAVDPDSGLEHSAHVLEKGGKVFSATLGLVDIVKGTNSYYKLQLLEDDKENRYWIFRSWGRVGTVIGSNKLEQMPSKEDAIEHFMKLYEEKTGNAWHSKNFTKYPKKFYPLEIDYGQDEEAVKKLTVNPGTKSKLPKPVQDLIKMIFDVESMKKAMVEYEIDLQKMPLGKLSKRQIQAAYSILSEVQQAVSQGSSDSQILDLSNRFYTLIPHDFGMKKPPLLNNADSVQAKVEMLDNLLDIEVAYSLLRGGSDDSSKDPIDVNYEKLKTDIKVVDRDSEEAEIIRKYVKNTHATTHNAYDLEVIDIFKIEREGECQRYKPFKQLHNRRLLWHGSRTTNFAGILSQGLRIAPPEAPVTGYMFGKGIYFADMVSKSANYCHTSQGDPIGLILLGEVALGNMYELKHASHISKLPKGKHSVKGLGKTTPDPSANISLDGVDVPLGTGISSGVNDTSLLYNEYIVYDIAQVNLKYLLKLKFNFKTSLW

Compound	IC50 (Human PARP-1 enzyme) [nM]	HCT116 antiproliferative activity pIC50 (HCT116 cells; HCT116 cells)	PC3 antiproliferative activity pIC50 (PC-3 cells; PC3 cells)	IC50 (HCT116 cells; Alamar Blue) [nM]	IC50 (PC-3 cells; Alamar Blue) [nM]	IC50 (HCT116 cells) [nM]	IC50 (PC-3 cells) [nM]
CCc1cc2ccc(C(C)(C#N)Cc3nc(C#N)cc(OC)n3)cc2[nH]c1=O (single isomer, unassigned) [Compound 204]	39.8	7.0	6.8				
CCc1cc2c(OC)cc(C(C)(C#N)Cc3nc(OC)cc(OC)n3)cc2[nH]c1=O (single isomer, unassigned) [Compound 230]	63.1			1580	2000		
CCc1cc2ccc([C@@](C)(C#N)CCOc3ccc(C#N)cc3)cc2[nH]c1=O (single isomer, unassigned) [Compound 273]	79.4			398	398		
CCc1cc2ccc([C@](C)(C#N)CCOc3ccc(C#N)cc3)cc2[nH]c1=O (single isomer, unassigned) [Compound 275]	50.1			10000	10000		
CCc1cc2ccc([C@](C)(C#N)Cc3cccc(/C=C/S(C)(=O)=O)c3)cc2[nH]c1=O (single isomer, unassigned) [Compound 291]	25.1			200	501		
CCc1cc2ccc([C@@](C)(C#N)Cc3cccc(C#CCO)c3)cc2[nH]c1=O (single isomer, unassigned) [Compound 295]	25.1			10000	10000		
CCc1cc2ccc([C@](C)(C#N)Cc3cccc(C#CCO)c3)cc2[nH]c1=O (single isomer, unassigned) [Compound 296]	31.6			126	100		
CCc1cc2ccc([C@@](C)(C#N)Cc3cc(OC)nc(C)n3)cc2[nH]c1=O (single isomer, unassigned) [Compound 361]	126			10000	10000		
CCc1cc2ccc([C@](C)(C#N)Cc3cc(OC)nc(C)n3)cc2[nH]c1=O (single isomer, unassigned) [Compound 362]	631			1000	631		
Cc1cc2ccc([C@@](C)(C#N)C3CCc4ccccc43)cc2[nH]c1=O (single isomer, unassigned) [Compound 385]	100			3980	10000		
Cc1cc2ccc([C@](C)(C#N)C3CCc4ccccc43)cc2[nH]c1=O (single isomer, unassigned) [Compound 386]	126			200	200		
CCc1cc2ccc(C(C)(C#N)Cc3cccc(OCCCN4CCNCC4)c3)cc2[nH]c1=O (centres unmarked) [Compound 25]	1580					3160	6310
CCc1cc2ccc(C(C#N)(Cc3ccccc3)c3ccc(C#N)cc3)cc2[nH]c1=O (centres unmarked) [Compound 26]	1580					2510	> 10000
CCc1cc2ccc(C(C#N)(Cc3ccccc3)c3ccccc3)cc2[nH]c1=O (centres unmarked) [Compound 27]	1000					3980	6310
CCc1cc2ccc(C(C#N)(Cc3ccccc3)C3CC3)cc2[nH]c1=O (centres unmarked) [Compound 29]	631					1260	5010
CCc1cc2ccc(C(C#N)(Cc3ccccc3)C(C)C)cc2[nH]c1=O (centres unmarked) [Compound 30]	3160					1260	6310
CCCC(C#N)(Cc1ccccc1)c1ccc2cc(CC)c(=O)[nH]c2c1 (centres unmarked) [Compound 31]	2000					3160	3160
CCc1cc2ccc(C(C)(C#N)Cc3cc(OC)ccc3F)cc2[nH]c1=O (centres unmarked) [Compound 171]	20					126	200
CCc1cc2ccc(C(C)(C#N)Cc3cccc(-c4ccc[nH]4)c3)cc2[nH]c1=O (centres unmarked) [Compound 176]	50.1			5010	5010		
CCc1cc2ccc(C(C)(C#N)Cc3cccc(CCS(C)(=O)=O)c3)cc2[nH]c1=O (centres unmarked) [Compound 178]	63.1			3980	10000		
Cc1cc2ccc(C(C)(C#N)Cc3cccc(C=Cc4ccccc4)c3)cc2[nH]c1=O (centres unmarked) [Compound 179]	200			2000	7940		
CCc1cc2ccc(C(C)(C#N)Cc3cccc(/C=N/OC)c3)cc2[nH]c1=O (centres unmarked) [Compound 185]	20					200	251
CCc1cc2ccc(C(C)(C#N)Cc3cccc(C(=N)NO)c3)cc2[nH]c1=O (centres unmarked) [Compound 186]	39.8			3980	5010		
Cc1cc2ccc(C(C)(C#N)Cc3cccc(Oc4ccc(F)cc4)c3)cc2[nH]c1=O (centres unmarked) [Compound 192]	398			631	1580		
CCc1cc2ccc(C(C)(C#N)Cc3cccc(OCCCC#N)c3)cc2[nH]c1=O (centres unmarked) [Compound 194]	25.1					501	631

Compound	IC50 (Human PARP-1 enzyme) [nM]	HCT116 antiproliferative activity pIC50 (HCT116 cells; HCT116 cells)	PC3 antiproliferative activity pIC50 (PC-3 cells; PC3 cells)	IC50 (HCT116 cells; Alamar Blue) [nM]	IC50 (PC-3 cells; Alamar Blue) [nM]	IC50 (HCT116 cells) [nM]	IC50 (PC-3 cells) [nM]
CCc1cc2ccc(C(C)(C#N)Cc3cccc(OCCC#N)c3)cc2[nH]c1=O (centres unmarked) [Compound 195]	39.8			251	251		
C#CCOc1cccc(CC(C)(C#N)c2ccc3cc(CC)c(=O)[nH]c3c2)c1 (centres unmarked) [Compound 196]	25.1			631	1000		
CCc1cc2ccc(C(C)(C#N)COCc3ccccc3)cc2[nH]c1=O (centres unmarked) [Compound 197]	100			2000	6310		
CCc1cc2ccc(C(C)(C#N)Cc3cccc(OCCS(C)(=O)=O)c3)cc2[nH]c1=O (centres unmarked) [Compound 201]	25.1					2510	5010
CCc1cc2ccc(C(C)(C#N)Cc3nc(Cl)cc(OC)n3)cc2[nH]c1=O (centres unmarked) [Compound 202]	79.4			200	251		
CCc1cc2ccc(C(C)(C#N)Cc3nc(N(C)C)cc(N(C)C)n3)cc2[nH]c1=O (centres unmarked) [Compound 205]	79.4			631	1260		
CCc1cc2ccc(C(C)(C#N)Cc3cccc(N4CCC(N(C)C)C4)n3)cc2[nH]c1=O (centres unmarked) [Compound 209]	50.1			2000	5010		
CCc1cc2ccc(C(C)(C#N)Cc3cccc(C#Cc4cncn4C)n3)cc2[nH]c1=O (centres unmarked) [Compound 217]	79.4			5010	6310		
CCc1cc2ccc(C(C)(C#N)Cc3cccc(N(C)CCc4ccccc4)n3)cc2[nH]c1=O.Cl (centres unmarked) [Compound 220]	398			2000	7940		
CCc1cc2ccc(C(C)(C#N)Cc3cccc(C#N)[n+]3[O-])cc2[nH]c1=O (centres unmarked) [Compound 228]	50.1					1580	3160
CCc1cc2c(OC)cc(C(C)(C#N)Cc3nc(OC)cc(OC)n3)cc2[nH]c1=O (centres unmarked) [Compound 229]	63.1			2510	5010		
CCc1cc2ccc(C(C)(C#N)CN3CCN(c4ccccn4)CC3)cc2[nH]c1=O (centres unmarked) [Compound 233]	50.1			1000	2000		
Cc1nc(-c2ccccc2)sc1CC(C)(C#N)c1ccc2cc(C)c(=O)[nH]c2c1 (centres unmarked) [Compound 235]	126			1580	1580		
CCc1cc2ccc(C(C)(C#N)Cc3cccc4c3CCN4)cc2[nH]c1=O (centres unmarked) [Compound 237]	25.1			2510	6310		
CCc1cc2ccc(C(C)(C#N)Cc3cccc(C(=O)OC(C)C)c3)cc2[nH]c1=O (centres unmarked) [Compound 255]	50.1			158	251		
Cc1cc2ccc(C(C)(C#N)Cc3cccc(I)c3)cc2[nH]c1=O (centres unmarked) [Compound 256]	126			398	1000		
CCc1cc2ccc(C(C)(C#N)Cc3cccc(NC)c3)cc2[nH]c1=O (centres unmarked) [Compound 257]	79.4			631	1580		
CCc1cc2ccc(C(C)(C#N)Cc3cc(Br)cc(N(C)C)c3)cc2[nH]c1=O (centres unmarked) [Compound 260]	79.4			158	200		
Cc1cc2ccc(C(C)(C#N)Cc3cccc(OCC4CCOCC4)c3)cc2[nH]c1=O (centres unmarked) [Compound 261]	100			5010	6310		
CCc1cc2ccc(C(C)(C#N)Cc3cc(F)ccc3F)cc2[nH]c1=O (centres unmarked) [Compound 280]	50.1			794	631		
CCc1cc2ccc(C(C)(C#N)Cc3ccc(F)c(F)c3)cc2[nH]c1=O (centres unmarked) [Compound 281]	39.8			2000	1580		
CCc1cc2ccc(C(C)(C#N)Cc3cc(C(F)(F)F)ccc3F)cc2[nH]c1=O (centres unmarked) [Compound 283]	79.4			794	2000		
CCOc1cccc(CC(C)(C#N)c2ccc3cc(CC)c(=O)[nH]c3c2)c1 (centres unmarked) [Compound 285]	50.1			794	1580		
CCc1cc2ccc(C(C)(C#N)Cc3ccc4c(c3)OC(F)(F)O4)cc2[nH]c1=O (centres unmarked) [Compound 346]	79.4				3160		
